The values that follow come from PubChem BioAssay (NCI).

Some test systems named below: NCI-H460 lung; IGROV1 ovarian; HCC-2998 colon; MALME-3M melanoma; SN12C renal; SK-MEL-28 melanoma; 786-0 renal; NCI-H226 lung; SF-268 CNS; K-562 leukemia; OVCAR-8 ovarian; U251 CNS; SW-620 colon; MCF7 breast.
What all share (assay): NCI-60 cell line screen, 48 h

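Assay format: 96-well plates, 48-hour exposure. TGI marks complete inhibition of growth.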

In the case of `CC(C)(C)OC(=O)NC(Cc1ccc(OCc2ccccc2)cn1)C(N)=O` (stereo unspecified), the TGI in the test with NCI-H460 lung, in the test on IGROV1 ovarian, in the test on HCC-2998 colon, in the test on MALME-3M melanoma, in the test with SN12C renal and with SK-MEL-28 melanoma was over 100 µM each time. Moreover, the TGI with 786-0 renal, in the test with NCI-H226 lung, in the test with SF-268 CNS, with K-562 leukemia, with OVCAR-8 ovarian and in the test on U251 CNS was over 100 µM in each case. The TGI with SW-620 colon and in the test on MCF7 breast was over 100 µM in each case.

As to `COC(=O)/C(C#N)=C(/NCc1ccccc1)Nc1ccccc1`, the TGI in the test with NCI-H460 lung, in the test on IGROV1 ovarian, in the test on HCC-2998 colon, with MALME-3M melanoma, in the test with SN12C renal and with SK-MEL-28 melanoma was over 100 µM throughout. In addition, the TGI in the test with 786-0 renal, in the test with NCI-H226 lung, with SF-268 CNS, in the test on K-562 leukemia, in the test with OVCAR-8 ovarian and with U251 CNS was over 100 µM throughout. For the same compound, the TGI in the test with SW-620 colon and in the test with MCF7 breast was over 100 µM throughout.

Take `N#CCCN(CCCN(C(=O)Nc1ccc(NC(=O)N(CCCN(CCC#N)C(N)=O)c2ccccc2)cc1)c1ccccc1)C(N)=O`: the TGI in the test on NCI-H460 lung, with HCC-2998 colon, with MALME-3M melanoma, in the test with SK-MEL-28 melanoma, in the test with 786-0 renal and in the test on NCI-H226 lung was over 100 µM throughout. Besides, the TGI in the test on SF-268 CNS, in the test on K-562 leukemia, in the test on OVCAR-8 ovarian, in the test with U251 CNS, in the test on SW-620 colon and in the test with MCF7 breast was over 100 µM throughout.

For the compound `COc1ccc2cc(/C=N\NC(=O)Nc3ccc([N+](=O)[O-])cc3)ccc2c1`, the TGI is 18.3 µM with NCI-H460 lung; 23.2 µM with IGROV1 ovarian; 20.1 µM in the test with HCC-2998 colon; 22.4 µM in the test with MALME-3M melanoma; 18 µM in the test on SN12C renal; 23.1 µM with SK-MEL-28 melanoma. The TGI in the test on 786-0 renal was 16.8 µM; with SF-268 CNS, over 31.6 µM; in the test with K-562 leukemia, over 31.6 µM; in the test with OVCAR-8 ovarian, 16.9 µM; with U251 CNS, 26.6 µM; in the test on SW-620 colon, over 31.6 µM. The compound further showed a TGI in the test on MCF7 breast of over 31.6 µM.

On to `COC(=O)C1=C(C(=O)OC)C(OO)(c2ccccc2)OC1=O` (stereo unspecified), for which the TGI in the test on NCI-H460 lung, in the test with IGROV1 ovarian, in the test on HCC-2998 colon, in the test on MALME-3M melanoma, in the test on SN12C renal and with SK-MEL-28 melanoma was over 100 µM in each case. Also, the TGI in the test with 786-0 renal, in the test on NCI-H226 lung, in the test on K-562 leukemia, in the test on OVCAR-8 ovarian, in the test with U251 CNS and with SW-620 colon was over 100 µM in each case. This compound also yielded a TGI with MCF7 breast of over 100 µM.

With `O=C(/C=C/c1ccccc1Br)c1ccccc1`, the TGI in the test on NCI-H460 lung was 16.3 µM; with IGROV1 ovarian, 9.91 µM; in the test with HCC-2998 colon it was 7.68 µM; in the test with SN12C renal, 21.7 µM; with SK-MEL-28 melanoma it was 15.8 µM; in the test with 786-0 renal, 4.39 µM. The TGI with NCI-H226 lung worked out at 36.6 µM; in the test on SF-268 CNS, 10.5 µM; in the test with K-562 leukemia it was 5.14 µM; in the test with OVCAR-8 ovarian, 8.31 µM; in the test with U251 CNS it was 2.9 µM; in the test with SW-620 colon, 3.02 µM. The compound also displayed a TGI in the test with MCF7 breast of 2.27 µM.

With `Cc1ccc(S(=O)(=O)OI(O)CC(F)(F)F)cc1`, the TGI in the test with NCI-H460 lung, in the test on IGROV1 ovarian, in the test with HCC-2998 colon, in the test with SN12C renal, in the test with SK-MEL-28 melanoma and with 786-0 renal was over 100 µM throughout. For the same compound, the TGI in the test on NCI-H226 lung, in the test on SF-268 CNS, with K-562 leukemia, with OVCAR-8 ovarian, with U251 CNS and in the test on SW-620 colon was over 100 µM throughout. In addition, in the test on MCF7 breast, the TGI is over 100 µM.

For the compound `CC(C(=O)O)C1Nc2ccccc2NC1=O` (stereo unspecified), the TGI with NCI-H460 lung, in the test with IGROV1 ovarian, in the test with HCC-2998 colon, with MALME-3M melanoma, in the test with SK-MEL-28 melanoma and in the test on 786-0 renal was over 100 µM in each case. The TGI with NCI-H226 lung, in the test with SF-268 CNS, with K-562 leukemia, in the test on OVCAR-8 ovarian, with U251 CNS and with SW-620 colon was over 100 µM each time. Also, in the test with MCF7 breast, the TGI is over 100 µM.

Consider `COc1cc(/C=C2\C(=O)N(c3ccc(NC(C)=O)cc3)C(c3ccccc3)S2(=O)=O)cc(OC)c1OC` (stereo unspecified), for which the TGI in the test with NCI-H460 lung, with IGROV1 ovarian, with HCC-2998 colon, in the test on MALME-3M melanoma, in the test with SN12C renal and in the test with SK-MEL-28 melanoma was over 100 µM throughout. In addition, the TGI with 786-0 renal, in the test with NCI-H226 lung, with K-562 leukemia, in the test on OVCAR-8 ovarian, in the test on U251 CNS and with SW-620 colon was over 100 µM in each case. Also, the TGI in the test on MCF7 breast was over 100 µM.

Take `O=C1Nc2ccccc2/C1=N/N1C(=O)/C(=C/c2ccccc2S)N=C1c1ccccc1`: the TGI in the test on NCI-H460 lung, in the test on IGROV1 ovarian, in the test on HCC-2998 colon, in the test on MALME-3M melanoma, in the test on SN12C renal and in the test on SK-MEL-28 melanoma was over 100 µM throughout. The TGI in the test on 786-0 renal, in the test on SF-268 CNS, in the test on K-562 leukemia, in the test on OVCAR-8 ovarian, in the test with U251 CNS and with SW-620 colon was over 100 µM in each case. The TGI with MCF7 breast was over 100 µM.
